Read-outs that look alike come from different tables or passages of the source.
Assays:
Format in all cases: biochemical
[1] = biological target: T1, MMP-1 (Homo sapiens, UniProt P03956); assay: MMP-1 inhibitory action (Type I collagen Activity Measurement kit, FITC-labeled collagen type I)
T1 sequence (P03956 100-469): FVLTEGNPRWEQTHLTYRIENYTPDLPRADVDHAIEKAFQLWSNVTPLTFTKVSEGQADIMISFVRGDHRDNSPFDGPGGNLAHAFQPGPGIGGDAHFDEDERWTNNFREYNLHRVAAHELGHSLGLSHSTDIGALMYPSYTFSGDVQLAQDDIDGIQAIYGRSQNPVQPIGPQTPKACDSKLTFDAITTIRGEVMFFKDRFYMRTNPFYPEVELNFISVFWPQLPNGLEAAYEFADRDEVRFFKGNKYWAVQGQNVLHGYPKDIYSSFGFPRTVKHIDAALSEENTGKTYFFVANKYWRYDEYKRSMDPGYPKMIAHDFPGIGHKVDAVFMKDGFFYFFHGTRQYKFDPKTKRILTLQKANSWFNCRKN

[2] = biological target: T2, aggrecanase-1 (Homo sapiens, UniProt O75173); assay: Aggrecanase-1 inhibitory action (Particle Assay, GAG release from aggrecan-containing polyacrylamide particles)
T2 sequence (O75173 213-837): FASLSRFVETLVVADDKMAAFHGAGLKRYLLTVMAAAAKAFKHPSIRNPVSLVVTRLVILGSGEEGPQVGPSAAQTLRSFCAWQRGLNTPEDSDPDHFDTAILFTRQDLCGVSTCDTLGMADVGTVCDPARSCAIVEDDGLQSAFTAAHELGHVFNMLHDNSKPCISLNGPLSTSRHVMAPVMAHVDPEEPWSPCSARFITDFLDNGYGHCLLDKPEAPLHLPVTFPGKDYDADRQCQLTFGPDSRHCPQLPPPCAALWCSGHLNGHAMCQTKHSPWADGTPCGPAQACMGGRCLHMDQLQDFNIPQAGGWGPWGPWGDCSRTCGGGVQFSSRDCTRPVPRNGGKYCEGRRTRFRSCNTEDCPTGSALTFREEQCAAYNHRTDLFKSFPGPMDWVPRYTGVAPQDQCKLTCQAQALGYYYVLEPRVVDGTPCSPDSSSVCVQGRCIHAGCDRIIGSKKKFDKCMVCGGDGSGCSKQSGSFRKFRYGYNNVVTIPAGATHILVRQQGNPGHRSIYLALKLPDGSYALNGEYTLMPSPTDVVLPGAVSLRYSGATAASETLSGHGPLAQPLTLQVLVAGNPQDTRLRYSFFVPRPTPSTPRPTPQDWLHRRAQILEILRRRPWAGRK
Summary of the method: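 Enzyme and compound incubated with aggrecan-containing polyacrylamide particles in Tris-HCl buffer at 37° C for 15 h. Released GAG in supernatant measured with 1,9-dimethylmethylene blue at 595 nm against chondroitin sulfate standard; % inhibition from enzyme-free and inhibitor-free wells, reported as TC50 (μM).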

[3] = biological target: T3, Recombinant Human MMP-13 (Homo sapiens, UniProt P45452); assay: MMP-13 inhibitory activity (MMP-13 specific fluorescent substrate with quencher)
T3 construct: purchased R&D systems 511-MM
Summary of the method: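 Recombinant human MMP-13 with test compound, reaction started with quenched fluorogenic peptide 7-MCA-Pro-CHA-Gly-NVal-His-Ala-DPA in Tris-HCl buffer, 1 h at 25 °C, stopped with acetic acid. Fluorescence at Ex 325/Em 405 nm; % inhibition versus enzyme-free and inhibitor-free wells, reported as IC50 (μM).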

[4] = Experimental Example 2, read-out: IC50 MMP1
[5] = Experimental Example 1, read-out: IC50 AG1
[6] = Experimental Example 3, read-out: IC50 MMP13
[7] = MMP-1 inhibitory action, FITC-labeled collagen type I, 37° C. for 3 hr, read-out: IC50 MMP1 (Experimental Example 2)
[8] = aggrecanase-1 inhibitory action, read-out: IC50 AG1 (Experimental Example 1)
[9] = Recombinant Human MMP-13, fluorescent substrate, 25° C. for 1 h, read-out: IC50 MMP13 (Experimental Example 3)

SMILES: COc1cnn(-c2ccc(S(=O)(=O)N[C@@]3(C(=O)O)C(C)[C@@H]3c3ccccc3)s2)c1 (stereo partly drawn) [Example 2-492]
- IC50 [1, 4]: < 100 nM
- IC50 [2, 5]: < 100 nM
- IC50 [3, 6]: < 100 nM

SMILES: CC1[C@H](c2ccccc2)[C@]1(NS(=O)(=O)N1CCC(Oc2cccc(Cl)c2)C1)C(=O)O (stereo partly drawn) [Example 2-501]
- IC50 [1, 4]: ≥ 1000 nM
- IC50 [2, 5]: ≥ 1000 nM
- IC50 [3, 6]: ≥ 1000 nM

SMILES: O=C(O)[C@]1(NS(=O)(=O)c2ccc3c(c2)Cc2cc(Cl)ccc2-3)C[C@@H]1c1ccccc1 [Example 2-142]
- IC50 [1, 7]: ≥ 1000 nM
- IC50 [2, 8]: < 100 nM
- IC50 [3, 9]: < 1000 nM

SMILES: O=C(O)C1(NS(=O)(=O)c2ccc(-c3ccc(Cl)cc3)s2)CC1(CN1CCOCC1)c1ccccc1 (stereo not drawn) [Example 2-341]
- IC50 [1, 4]: ≥ 10000 nM
- IC50 [2, 5]: < 100 nM
- IC50 [3, 6]: ≥ 1000 nM

SMILES: O=C(NO)C1(NS(=O)(=O)c2ccc(OCc3ccc(Cl)cc3Cl)cc2)C2CCCc3ccccc3C21 (stereo not drawn) [Example 2-390]
- IC50 [1, 4]: ≥ 10000 nM
- IC50 [2, 5]: < 1000 nM
- IC50 [3, 6]: ≥ 1000 nM

SMILES: CC1(C)CC1(NS(=O)(=O)c1ccc(-c2ccc(Cl)cc2)s1)C(=O)O (stereo not drawn) [Example 2-147]
- IC50 [1, 7]: ≥ 10000 nM
- IC50 [2, 8]: ≥ 1000 nM
- IC50 [3, 9]: ≥ 1000 nM

SMILES: CC1(c2ccccc2Cl)CC1(NS(=O)(=O)c1ccc(-c2cc(C(F)(F)F)on2)s1)C(=O)O (stereo not drawn) [Example 2-616]
- IC50 [1, 4]: < 1000 nM
- IC50 [2, 5]: < 100 nM
- IC50 [3, 6]: < 1000 nM

SMILES: C[C@]1(c2ccccc2)C[C@@]1(NS(=O)(=O)c1ccc(-n2cc(C(F)(F)F)cn2)cc1)C(=O)O [Example 2-506]
- IC50 [1, 4]: < 1000 nM
- IC50 [2, 5]: ≥ 1000 nM
- IC50 [3, 6]: < 100 nM

SMILES: O=C(O)C1(NS(=O)(=O)c2ccc(-c3ccc(Cl)cc3)cc2)CC1c1cccc(NCc2cccnc2)c1 (stereo not drawn) [Example 1-3]
- IC50 [1, 7]: ≥ 1000 nM
- IC50 [2, 8]: < 100 nM
- IC50 [3, 9]: < 100 nM

SMILES: O=C(O)C1(NS(=O)(=O)c2ccc3c(c2)Cc2cc(Br)ccc2-3)CC1c1ccccc1 (stereo not drawn) [Example 1-72]
- IC50 [1, 7]: ≥ 1000 nM
- IC50 [2, 8]: < 100 nM
- IC50 [3, 9]: < 1000 nM

SMILES: O=C(O)C1(NS(=O)(=O)c2ccc(S(=O)(=O)c3ccccc3)s2)CC1c1ccccc1 (stereo not drawn) [Example 2-81]
- IC50 [1, 7]: ≥ 10000 nM
- IC50 [2, 8]: ≥ 10000 nM
- IC50 [3, 9]: ≥ 10000 nM

SMILES: O=C(CCc1cccc(C2CC2(NS(=O)(=O)c2ccc(-c3ccc(Cl)cc3)s2)C(=O)O)c1)N1CCSCC1 (stereo not drawn) [Example 2-211]
- IC50 [1, 7]: ≥ 10000 nM
- IC50 [2, 8]: < 100 nM
- IC50 [3, 9]: < 100 nM

SMILES: O=C(O)C1(NS(=O)(=O)c2ccc(-c3ccc(C(F)(F)F)cc3)s2)CC1c1ccccc1 (stereo not drawn) [Example 2-19]
- IC50 [1, 7]: ≥ 10000 nM
- IC50 [2, 8]: < 1000 nM
- IC50 [3, 9]: < 1000 nM

SMILES: O=C(O)C1(NS(=O)(=O)c2ccc(-c3ccc(Cl)cc3)cc2)CC1c1cccc(Nc2ccccn2)c1 (stereo not drawn) [Example 1-61]
- IC50 [1, 7]: ≥ 1000 nM
- IC50 [2, 8]: < 1000 nM
- IC50 [3, 9]: < 100 nM

SMILES: O=C(O)C1(NS(=O)(=O)c2ccc(-c3ccc(Cl)cc3)s2)CC1(CCCN1CCOCC1)c1ccccc1 (stereo not drawn) [Example 2-249]
- IC50 [1, 7]: ≥ 10000 nM
- IC50 [2, 8]: < 100 nM
- IC50 [3, 9]: < 1000 nM

SMILES: CC1[C@H](c2ccccc2)[C@]1(NS(=O)(=O)c1ccc(-c2ccc(Cl)c(F)c2)s1)C(=O)O (stereo partly drawn) [Example 2-435]
- IC50 [1, 4]: < 1000 nM
- IC50 [2, 5]: < 100 nM
- IC50 [3, 6]: < 100 nM

SMILES: CCNC(=O)NCC1(c2ccccc2)CC1(NS(=O)(=O)c1ccc(-c2ccc(Cl)cc2)s1)C(=O)O (stereo not drawn) [Example 2-396]
- IC50 [1, 4]: ≥ 10000 nM
- IC50 [2, 5]: < 1000 nM
- IC50 [3, 6]: < 1000 nM

SMILES: O=C(O)C1(NS(=O)(=O)c2cn3cc(-c4ccccc4)nc3s2)CC1c1ccccc1 (stereo not drawn) [Example 2-489]
- IC50 [1, 4]: ≥ 10000 nM
- IC50 [2, 5]: ≥ 1000 nM
- IC50 [3, 6]: < 100 nM

SMILES: C[C@]1(c2ccccc2)C[C@@]1(NS(=O)(=O)c1ccc(-c2ccc(Cl)cn2)s1)C(=O)O [Example 2-131]
- IC50 [1, 7]: ≥ 1000 nM
- IC50 [2, 8]: < 100 nM
- IC50 [3, 9]: < 1000 nM

SMILES: Cc1ccc(-c2ccc(S(=O)(=O)N[C@@]3(C(=O)O)C[C@@H]3c3ccccc3)s2)s1 [Example 2-39]
- IC50 [1, 7]: ≥ 1000 nM
- IC50 [2, 8]: < 1000 nM
- IC50 [3, 9]: < 100 nM

SMILES: CCOC(=O)c1cnn(-c2ccc(S(=O)(=O)N[C@@]3(C(=O)O)C(C)[C@@H]3c3ccccc3)s2)c1 (stereo partly drawn) [Example 2-521]
- IC50 [1, 4]: ≥ 1000 nM
- IC50 [2, 5]: < 1000 nM
- IC50 [3, 6]: < 100 nM

SMILES: C[C@]1(c2ccccc2)C[C@@]1(NS(=O)(=O)c1ccc(-n2cc(Cl)cn2)s1)C(=O)O [Example 2-498]
- IC50 [1, 4]: ≥ 1000 nM
- IC50 [2, 5]: < 100 nM
- IC50 [3, 6]: < 1000 nM

SMILES: O=C(O)C1(NS(=O)(=O)c2ccc(-c3ccc(Cl)cc3)s2)CC1c1cccc(NS(=O)(=O)c2cccnc2)c1 (stereo not drawn) [Example 1-136]
- IC50 [1, 7]: ≥ 1000 nM
- IC50 [2, 8]: < 100 nM
- IC50 [3, 9]: < 100 nM

SMILES: O=C(O)[C@]1(NS(=O)(=O)c2ccc(-c3nc(C(F)(F)F)cs3)s2)C[C@@H]1c1ccccc1 [Example 2-60]
- IC50 [1, 7]: ≥ 10000 nM
- IC50 [2, 8]: ≥ 10000 nM
- IC50 [3, 9]: ≥ 1000 nM

SMILES: Cn1nc(C(F)(F)F)cc1-c1ccc(S(=O)(=O)NC2(C(=O)O)CC2c2ccccc2)s1 (stereo not drawn) [Example 2-14]
- IC50 [1, 7]: ≥ 10000 nM
- IC50 [2, 8]: ≥ 10000 nM
- IC50 [3, 9]: ≥ 10000 nM

SMILES: C=C(Cl)c1cnn(-c2ccc(S(=O)(=O)N[C@@]3(C(=O)O)C(C)[C@@H]3c3ccccc3)s2)c1 (stereo partly drawn) [Example 2-545]
- IC50 [1, 4]: < 100 nM
- IC50 [2, 5]: < 100 nM
- IC50 [3, 6]: < 100 nM

SMILES: O=C(O)Cc1cccc(C2CC2(NS(=O)(=O)c2ccc(-c3ccc(Cl)cc3)s2)C(=O)O)c1 (stereo not drawn) [Example 2-181]
- IC50 [1, 7]: ≥ 1000 nM
- IC50 [2, 8]: < 100 nM
- IC50 [3, 9]: < 100 nM

SMILES: C[C@]1(c2ccccc2)C[C@@]1(NS(=O)(=O)c1ccc(-c2ccc3c(c2)OCCO3)s1)C(=O)O [Example 2-485]
- IC50 [1, 4]: ≥ 10000 nM
- IC50 [2, 5]: < 1000 nM
- IC50 [3, 6]: ≥ 1000 nM

SMILES: Nc1cccc(C2CC2(NS(=O)(=O)c2ccc(-c3ccc(Cl)cc3)cc2)C(=O)O)c1 (stereo not drawn) [Example 1-18]
- IC50 [1, 7]: ≥ 1000 nM
- IC50 [2, 8]: < 1000 nM
- IC50 [3, 9]: < 100 nM

SMILES: O=C(NCC1(c2ccccc2)CC1(NS(=O)(=O)c1ccc(-c2ccc(Cl)cc2)s1)C(=O)O)[C@@H]1CCCO1 (stereo partly drawn) [Example 2-385]
- IC50 [1, 4]: ≥ 10000 nM
- IC50 [2, 5]: < 1000 nM
- IC50 [3, 6]: < 1000 nM

SMILES: O=C(O)C1(NS(=O)(=O)c2ccc(-c3ccc(Cl)c(Cl)c3)s2)CC1c1ccccc1 (stereo not drawn) [Example 2-18]
- IC50 [1, 7]: ≥ 1000 nM
- IC50 [2, 8]: < 1000 nM
- IC50 [3, 9]: < 1000 nM

SMILES: CC(C)OCCNC(=O)OCC1(c2ccccc2)CC1(NS(=O)(=O)c1ccc(-c2cc(C(F)(F)F)on2)s1)C(=O)O (stereo not drawn) [Example 2-308]
- IC50 [1, 4]: ≥ 1000 nM
- IC50 [2, 5]: < 1000 nM
- IC50 [3, 6]: < 1000 nM

SMILES: CC(C)c1cc(-c2ccc(S(=O)(=O)N[C@@]3(C(=O)O)C(C)[C@@H]3c3ccccc3)s2)no1 (stereo partly drawn) [Example 2-408]
- IC50 [1, 4]: < 1000 nM
- IC50 [2, 5]: < 100 nM
- IC50 [3, 6]: < 100 nM
